{"source": "patent US20110288036A1", "about": "“Methods for Treating or Preventing Vascular Graft Failure” (priority 2010, published 2011)", "key": {"[1]": {"tested_on": "mouse lung endothelial cells (MLEC)", "assay": "MCP-1 immunoassay of MLEC conditioned medium", "assay_type": "cell-based", "conditions": "even at high doses", "method": "Monocyte Chemotractic Protein-1 (MCP-1) production from mouse lung endothelial cells (MLEC) was analyzed using conditioned culture medium by Quantikine® Mouse CCL/JE/MCP-1 Immunoassay (R&D Systems) following the manufacturer's instructions. Briefly, the assay employs a quantitative sandwich enzyme immunoassay technique in which a monoclonal antibody specific for MCP-1 has been pre-coated onto a microplaste. Standards and samples are pipetted into the wells and any MCP-1 present is bound by the immobilized antibody. After washing away any unbound substances, an enzyme-linked polyclonal antibody specific for MCP-1 is added to the wells. Following a wash to remove any unbound antibody-enzyme reagent, a substrate solution is added to the wells and color develops in proportion to the amount of MCP-1 bound in the initial step. The color development is stopped and the intensity of the color is measured at 450 nm, with wavelength correction at 540 nm or 570 nm."}, "MKK4": {"biological_target": "T1, MKK4 (Mus musculus, UniProt P47809)", "T1 construct": "purchased Millipore (KinaseProfiler service)", "T1 sequence (P47809 whole entry)": "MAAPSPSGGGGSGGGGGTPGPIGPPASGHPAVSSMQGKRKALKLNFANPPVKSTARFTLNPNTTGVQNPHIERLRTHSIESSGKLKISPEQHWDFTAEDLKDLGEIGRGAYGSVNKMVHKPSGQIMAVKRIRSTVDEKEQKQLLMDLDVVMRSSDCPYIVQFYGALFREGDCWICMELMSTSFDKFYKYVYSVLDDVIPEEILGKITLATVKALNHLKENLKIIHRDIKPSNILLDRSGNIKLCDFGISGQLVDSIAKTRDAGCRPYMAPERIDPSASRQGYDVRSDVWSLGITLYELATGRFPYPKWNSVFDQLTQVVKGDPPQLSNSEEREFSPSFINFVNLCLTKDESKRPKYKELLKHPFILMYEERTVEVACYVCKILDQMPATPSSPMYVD", "assay": "MKK4 radiometric kinase assay", "assay_type": "biochemical", "conditions": "peptide 100 μM", "source_text": "A commercial radiometric assay service was used to test the specificity and potency of MMI-0100 ([…]; SEQ ID NO: 1) by measuring its half maximal inhibitory concentrations (IC50). This quantitative assay measures how much MK2 inhibitor (MMI-0100; […] (SEQ ID NO: 1)) is needed to inhibit 50% of a given biological process or component of a process (i.e., an enzyme, cell, or cell receptor). Specifically, in these assays, a positively charged substrate is phosphorylated with a radiolabeled phosphate group from an ATP if the kinase is not inhibited by an inhibitor peptide. The positively charged substrate then is attracted to a negatively charged filter membrane, quantified with a scintillation counter, and compared to a 100% activity control. ATP concentrations within 15 μM of the apparent Km for ATP were chosen since an ATP concentration near the Km may allow for the kinases to have the same relative amount of phosphorylation activity. The individual conditions for each radiometric assay are as follows.\nThe reaction was initiated by the addition of the MgATP. After incubation for 40 minutes at room temperature, 5 μl of the incubation mix was used to initiate the JNK radiometric assay described above.\nIC50 values for inhibitor peptides were determined using Millipore's IC50 Profiler Express service. The IC50 value was estimated from a 10-point curve of one-half log dilutions. […]"}, "[2]": {"tested_on": "human coronary artery endothelial cells (HCAEC)", "assay": "IL-6 and IL-8 ELISA in TNF-α-stimulated HCAEC", "assay_type": "cell-based", "conditions": "0.5 mM, 24 hours after 6 hour TNF-α", "method": "Primary human coronary artery endothelial cells (HCAEC) were cultured and seeded onto a 96-well plate, using methods described in the MTS proliferation assay above. Cells were again stimulated with 20 ng/ml of TNF-α for 6 hours and then treated with MMI-0100 (SEQ ID NO: 1) for approximately 24 hours. Supernatants were then collected and analyzed for drug effect on inflammatory cytokines.\nIL-6 (Cat #: 900-K16; Lot #: 0909016) and IL-8 (Cat #: 900-K18; Lot #: 0209018) ELISA kits (Peprotech; Rocky Hill, N.J.) were used to measure levels of these cytokines from HCAEC supernatants following treatment with MMI-0100 ([…]; SEQ ID NO: 1). The Human IL-6 ELISA development kit contains the key components required for the quantitative measurement of natural and/or recombinant hIL-6 in a sandwich ELISA format within the range of 32-2000 pg/ml. Human IL-8 ELISA development kit contains the key components required for the quantitative measurement of natural and/or recombinant hIL-8 in a sandwich ELISA format within the range of 16-1000 pg/ml. […]\nBriefly, 10 μl of supernatant was diluted with 90 μl of diluents; 3 replicates of each sample were used. Data were collected at 405 nm with correction at 650 nm on a plate reader. Each plate was monitored for 1 hour with readings taken every 5 minutes. Concentrations of IL-6 and IL-8 in test samples were determined by extrapolating from a standard curve. […]"}}, "note": "“Also recorded” adds a separate entry of the source."}
{"sequence": "YARAAARQARAKALARQLGVAA [MMI-0100]", "values": [{"measurement": "MCP-1 production", "setting": "[1]", "result": "did not stimulate MCP-1 production, even at high doses"}, {"measurement": "Percent Activity, MKK4", "setting": "MKK4", "result": 90, "unit": "%"}, {"measurement": "TNF-α-induced IL-6 expression", "setting": "[2]", "result": "reduced the level of TNF-α-induced IL-6 expression to that of the untreated control"}, {"measurement": "TNF-α-induced IL-8 expression", "setting": "[2]", "result": "did not affect the level of TNF-α-induced IL-8 expression; also recorded: no effect"}]}
